Measured values reported in patent US7015251B1 (priority 1999, dated 2006).
≈ marks a conversion by molar mass, not a printed value. Entries after “also recorded” stand apart in the source; their conditions may differ.

Tests used:
[1] = system: Jurkat; assay: MTT dye assay at 72 hrs, Jurkat; type: cell-based, human
[2] = system: Tu138 cells; settings: for Tumor Size (mm^2) at Week 5 / reduction in tumor growth / tumor size vs vehicle control: paclitaxel 120 μg and/or ceramide 500 μg in cremophore; for Tumor Size (mm^2) at Week 5: s.c. near tumor thrice weekly from day 4 for 5 weeks; for reduction in tumor growth / tumor size vs vehicle control: s.c., week 5 (Table 3)
From the text: The vehicle control consisted of cremophore only at the concentration utilized in the combination treatment.
In a separate experiment nude mice were implanted with 1−2×10^6 Tu138 cells. […] The vehicle control consisted of cremophore only at the concentration utilized in the combination treatment.

[3] = system: Jurkat cells; assay: Jurkat histologic evaluation (Wright's stain); type: cell-based, human; settings: 48 hours
Procedure: Histologic Evaluation. […] Wright's stains of all slides were performed using an automated Hemastainer (Geometric Data, Wayne, Pa.). Slides were analyzed microscopically, photographed (Olympus BH 2, Tokyo, Japan) at 100, 200, and 400 power, and evaluated for morphological changes.

[4] = system: Tu138 cells; assay: Tu138 MTT dye assay (cytotoxicity, isobologram); settings: for cytotoxicity: 3 days of culture; for cell cytotoxicity (time kinetics): ceramide 25 μg/ml alone; for ED50 (cytotoxicity, MTT): n=6, 3 days
Procedure: Tu138, an adherent squamous carcinoma cell line of the head and neck was established at U T M D Anderson Cancer Center, Houston, Tex. (20, 21) and was generously provided by Dr. Gary Clayman's laboratory. Tu138 cells were maintained routinely in T-75 culture flasks (Falcon, Inc., NJ) at a plating cell density of 0.1×10^6 per 75 sq. cm. surface area in complete D-MEM/F-12 culture medium (10 ml) containing 10% fetal bovine serum (FBS, Atlanta Biologicals, Ga.), 2 mM glutamine (Gibco, NY), 50 units/mL penicillin, […] streptomycin (Gibco, NY) and 20 mM Hepes (Sigma, MO) in a 5% CO2 atmosphere at 37° C. Tu138 cells were replenished with fresh complete culture medium twice weekly until confluence.
At the indicated times (24 to 72 hours), cells were subjected to (a) tetrazolium-based dye assay for cell survival measurements, (b) flow cytometry analysis for cell cycle progression and (c) measurements of apoptosis by TUNEL assay.
(22). At the end of an incubation period of 4 hours, culture plates were centrifuged at 300 g for 2 minutes.

[5] = system: Tu138 tumor; assay: Tu138 tumor in nude mice, intraperitoneal treatment; settings: paclitaxel 120 μg and/or ceramide 500 μg, within 4 weeks of administration
[6] = system: PC-3; assay: MTT dye assay at 72 hrs, PC-3; type: cell-based, human
[7] = system: Jurkat cells; assay: Jurkat cell cycle analysis (propidium iodide, FACScan); type: cell-based, human; settings: 24 hours
From the text: Cell Cycle Analysis. […] Pie graphs (FIGS. 3A–F) were generated and normalized to a control value of 100%.

[8] = system: RWP-2; assay: MTT dye assay at 72 hrs, RWP-2; type: cell-based, human
[9] = system: TU138; assay: MTT dye assay at 72 hrs, TU138; type: cell-based, human
[10] = system: Jurkat cells; assay: Jurkat cell proliferation assay (3H-thymidine uptake); type: cell-based, human
Procedure: Cell Proliferation Assays. […] DNA synthesis was assessed by the addition of ^3H-thymidine (1 μCi/well; specific activity—6.7 Ci/mmol; ICN Pharmaceuticals, Costa Mesa, Calif.) uptake 24 hours before the end of the 72 hour growth period at a final concentration of 1 μCi/well.

[11] = system: Jurkat cells; assay: Jurkat TUNEL assay for apoptosis; type: cell-based, human; settings: 48 hours
Procedure: Terminal deoxynucleotide transferase (TdT) mediated deoxyuridine triphosphate (dUTP) nick-end labeling (TUNEL) assay. […] At 24 and 48 hours, DNA strand breaks were labeled with TUNEL assay (In Situ Cell Death Detection Kit, Fluorescein; Boehringer Mannheim, Indianapolis, Ind.), and cellular apoptosis was measured by flow cytometry.

[12] = system: tumor cell lines; assay: MTT dye assay at 72 hrs, tumor cell lines tested (ID50); type: cell-based, human
[13] = system: HT29; assay: MTT dye assay at 72 hrs, HT29; type: cell-based, human
[14] = system: Tu138 cell-tumor; assay: Tu138 tumor in nude mice, subcutaneous treatment near tumor site
Procedure: To corroborate in vitro findings Tu138 cells were planted subcutaneously on nude mice. […] Tumor size was measured once a week. All groups of mice were sacrificed on day 45 and excised tumors were weighed.

[15] = system: LnCap; assay: MTT dye assay at 72 hrs, LnCap; type: cell-based, human
[16] = system: Tu138 cells; assay: Tu138 TUNEL assay for apoptosis; type: cell-based, human
Procedure: (§1) At the end of either 24 or 48 hours, cells were trypsinized and washed with the culture medium. For cell cycle measurements, cells were mixed with 0.5 ml of 0.1% propidium iodide solution (New Concepts Scientific Ltd. ON) containing 0.1% sodium citrate and 0.1% NP-40. RNase (1 μg) was added to each sample and cells were incubated at 4° C. for 30 minutes. At least 1×10^4 cells were acquired on a precalibrated FACScan (Beckton Dickinson, Calif.) flow cytometer. For precalibration “DNA QC” (Becton Dickinson, Calif.) kit was utilized. The acquired cells were then subjected to cell cycle analysis by the use of “Modfit LT” software (Beckton Dickinson, Calif.). For measurements of apoptosis, In Situ Cell Death Detection Kit (Boehringer Manheim, Ind.) followed by flow cytometry analysis was utilized.

[17] = system: Tu138 cells; assay: Tu138 cell cycle measurements (flow cytometry); type: cell-based, human; settings: for effect on cell cycle progression: ceramide 25 μg/ml alone, 24 or 48 hours, n=4; for cells blocked in the G2-M phase: paclitaxel 600 ng/ml
Procedure: as §1

[18] = system: recurrent breast cancer; settings: single agent, cited from earlier work
[19] = system: MCF-7; assay: MCF-7 cell cycle progression; type: cell-based, human
[20] = n=25, 250 mg/m^2, 24 hour infusion every 21 day interval
[21] = Homo sapiens, read-out: % Growth Inhibition

## CCCCCCCCCCCCC/C=C/[C@@H](O)[C@H](CO)NC(=O)CCCCC [Ceramide, N-hexanoyl-D-sphingosine]
[1]; CERAMIDE (25 μg/nl) alone
  % Growth Inhibition: 8%
[2]; ceramide delivered in cremophore, nude mice
  toxicity: no toxicity
[2]
  Tumor Size (mm^2) at Week 5: 109.5 ± 14.1 mm^2
  reduction in tumor growth / tumor size vs vehicle control: 44.7%
[3]; ceramide 25 μg/ml, 10% serum
  morphological changes (Wright's stain): morphologically indistinguishable from control cells
[4]; ceramide 12.5 μg/ml
  cytotoxicity: 19%
[4]; 24 hours
  cell cytotoxicity (time kinetics): 32.7%
[4]; 72 hours
  cell cytotoxicity (time kinetics): 54.5%
[4]; ceramide 25 μg/ml
  cytotoxicity: 46%
[4]; ceramide alone
  ED50 (cytotoxicity, MTT): 22 ± 5 µg/mL (≈ 55.3 µM)
[5]
  tumor size / tumor burden reduction in comparison to control (vehicle): no significant effect
[6]; CERAMIDE (25 μg/nl) alone
  % Growth Inhibition: 8%
[7]; ceramide treatment, 10% fetal bovine serum
  cell cycle pattern: did not differ from the non-ceramide-exposed control
[8]; CERAMIDE (25 μg/nl) alone, RWP-2
  % Growth Inhibition: 6%
[9]; CERAMIDE (25 μg/nl) alone, TU138
  % Growth Inhibition: 28%
[10]; Ceramide 25 μg/ml, Experiment 1
  [3H]thymidine uptake counts ± SD: 378245 ± 28689 cpm
[10]; Ceramide 25 μg/ml, Experiment 2
  [3H]thymidine uptake counts ± SD: 415740 ± 6168 cpm
[10]; Ceramide 25 μg/ml, Experiment 3
  [3H]thymidine uptake counts ± SD: 301993 ± 67599 cpm
[10]; Ceramide 25 μg/ml, Experiment 4
  [3H]thymidine uptake counts ± SD: 259230 ± 54914 cpm
[10]; Ceramide 25 μg/ml, Experiment 5
  [3H]thymidine uptake counts ± SD: 189052 ± 3534 cpm
[10]; ceramide added alone, all test concentrations (0 to 50 μg/ml), 10% fetal bovine serum
  growth inhibition: ≤ 6%
[10]; low serum (1%)
  ceramide-mediated growth inhibition: > 99%
[11]; 12.5 μg/ml of ceramide
  apoptosis (TUNEL): 0.41%
[11]; 25 μg/ml of ceramide
  apoptosis (TUNEL): 0.33%
[12]; ceramide, approximately
  calculated ID50 (cytotoxicity): 30.0 to 40.0 µg/mL
[13]; CERAMIDE (25 μg/nl) alone, HT29
  % Growth Inhibition: 61%
[14]; ceramide alone 500 μg/0.2 mL s.c. thrice weekly, excised day 45
  tumor weight: substantial reduction in tumor weight
[14]; ceramide alone 500 μg/0.2 mL s.c. thrice weekly, week 5
  tumor size: slight decrease in tumor size
[15]; CERAMIDE (25 μg/nl) alone, LnCap
  % Growth Inhibition: 25%
[16]; ceramide 25 μg/ml alone, 24 hours
  apoptosis (TUNEL): 9.7%
[16]; ceramide 25 μg/ml alone, 48 hours
  apoptosis (TUNEL): 13.6%
[17]
  effect on cell cycle progression: did not significantly affect either G0–G1 or G2-M phase
[17]; listed as ceramide
  effect on cell cycle progression: no significant effect

## CC(=O)O[C@H]1C(=O)[C@@]2(C)[C@H]([C@H](OC(=O)c3ccccc3)[C@]3(O)C[C@H](OC(=O)[C@H](O)[C@@H](NC(=O)c4ccccc4)c4ccccc4)C(C)=C1C3(C)C)[C@]1(OC(C)=O)CO[C@@H]1C[C@@H]2O [Paclitaxel]
[18]; 250 mg/m^2
  dose related toxicity: severe
[18]; [20]
  complete response rate: 12%
  partial response rate: 44%
[1]; [21]
  inhibition at 0.6 µg/mL: 55%
[2]
  Tumor Size (mm^2) at Week 5: 176.0 ± 90.3 mm^2
  reduction in tumor growth / tumor size vs vehicle control: 11.1%
[3]; 0.6 and 6.0 ng/ml of paclitaxel alone
  morphological changes (Wright's stain): apoptotic bodies were noted amid cell shrinkage and nuclear and membrane blebbing
[4]; paclitaxel alone
  ED50 (cytotoxicity, MTT): 1.92 ± 1.2 µg/mL (≈ 2.25 µM)
[5]
  tumor size / tumor burden reduction in comparison to control (vehicle): 29%
[6]; [21]
  inhibition at 0.6 µg/mL: 16%
[7]; 0.6 and 6.0 ng/ml paclitaxel each
  hypodiploid (sub-G1) cell population: approximately 25%
[7]; paclitaxel 0.6 ng/ml alone
  cell population in S phase: 31.8%
  decrease of cells in the G0–G1 phase: 13.3%
  total cell population in the G2-M phase: 22.2%
[7]; paclitaxel 6.0 ng/ml alone
  cell population in S phase: 27%
  decrease of cells in the G0–G1 phase: 23.5%
  total cell population in the G2-M phase: 38.2%
[7]; paclitaxel 0.6 or 6.0 ng/ml alone
  increase in the G2-M cell population vs untreated control: 2–3 fold
[8]; [21]
  inhibition at 0.6 µg/mL: 2%
[9]; [21]
  inhibition at 0.6 µg/mL: 10%
[10]; 10% fetal bovine serum
  concentrations that effectively blocked thymidine incorporation: higher than 0.06 ng/ml
[10]; Homo sapiens, Jurkat, read-out: growth inhibition
  inhibition at 0.0006 µg/mL: 56.5%
[10]; Taxol 0.6 ng/ml, Experiment 1
  [3H]thymidine uptake counts ± SD: 52675 ± 7478 cpm
[10]; Taxol 0.6 ng/ml, Experiment 2
  [3H]thymidine uptake counts ± SD: 95563 ± 6427 cpm
[10]; Taxol 0.6 ng/ml, Experiment 3
  [3H]thymidine uptake counts ± SD: 22771 ± 5113 cpm
[10]; Taxol 0.6 ng/ml, Experiment 4
  [3H]thymidine uptake counts ± SD: 89621 ± 17579 cpm
[10]; Taxol 0.6 ng/ml, Experiment 5
  [3H]thymidine uptake counts ± SD: 98694 ± 32045 cpm
[10]; Taxol 6.0 ng/ml, Experiment 1
  [3H]thymidine uptake counts ± SD: 16592 ± 782 cpm
[10]; Taxol 6.0 ng/ml, Experiment 2
  [3H]thymidine uptake counts ± SD: 33443 ± 17976 cpm
[10]; Taxol 6.0 ng/ml, Experiment 3
  [3H]thymidine uptake counts ± SD: 13400 ± 849 cpm
[10]; Taxol 6.0 ng/ml, Experiment 4
  [3H]thymidine uptake counts ± SD: 35466 ± 7576 cpm
[10]; Taxol 6.0 ng/ml, Experiment 5
  [3H]thymidine uptake counts ± SD: 10295 ± 353 cpm
[10]; paclitaxel alone, n=5, 3-day exposure assay
  ED50 (cell growth inhibition): approximately 0.5 ng/ml
[10]; paclitaxel alone, serum 10% to 1%
  effect of serum level on growth inhibition: unaffected by variation of serum levels
[11]; 0.6 ng/ml of paclitaxel
  apoptosis (TUNEL): 19.6%
[12]; paclitaxel, most tumor cell lines tested
  ID50 (cytotoxicity): 0.006 to 0.06 µg/mL
[19]; higher than ID50 paclitaxel concentrations
  number of cells in G2/M phase: 38%
[19]; lower than ID50 paclitaxel concentrations (0.6–6.0 ng/ml)
  cells blocked in G2/M phase of the cell cycle: greater than 55%
[13]; Homo sapiens, HT-29, read-out: % Growth Inhibition
  inhibition at 0.6 µg/mL: 16%
[14]; paclitaxel alone 120 μg/0.1 mL s.c. thrice weekly
  tumor growth compared with control: grew aggressively in control and paclitaxel treated mice almost equally; also recorded: equivalent growth
[15]; Homo sapiens, LNCaP, read-out: % Growth Inhibition
  inhibition at 0.6 µg/mL: 13%
[16]; paclitaxel 600 ng/ml alone, 24 hours
  apoptosis (TUNEL): 18.4%
[16]; paclitaxel 600 ng/ml alone, 48 hours
  apoptosis (TUNEL): 54.8%
[17]; 24 hours
  cells blocked in the G2-M phase: 61.8%
[17]; 48 hours
  cells blocked in the G2-M phase: 58.2%
